Several values for one entry are separate records, joined by “and”; a condition that tells them apart may be missing. Identical values can stand only once. ± gives the expanded uncertainty stated by the source.
Experiment: activity coefficient (dimensionless); of the first substance listed, at infinite dilution; xn = mol fraction of the nth substance listed
Conditions: 101 kPa, Liquid, x1 = 0

SMILES | activity coefficient (293.15 K, Chromatography) | activity coefficient (313.15 K, Chromatography) | activity coefficient (333.15 K, Chromatography) | activity coefficient (353.15 K, Chromatography) | activity coefficient (298.15 K, Chromatography) | activity coefficient (298.15 K) | activity coefficient (313.15 K) | activity coefficient (333.15 K) | activity coefficient (353.15 K)
CC(C)CO [2-methyl-1-propanol] + CCCCCC[n+]1ccn(C)c1.O=S(=O)([N-]S(=O)(=O)C(F)(F)F)C(F)(F)F | 2.39 and 2.44 | 1.88 and 1.87 | 1.49 and 1.52 | 1.3 ± 0.1 | – | – | – | – | –
CC(C)CO [2-methyl-1-propanol] + CCCCn1cc[n+](C)c1.COS(=O)(=O)[O-] | – | 1.29 ± 0.11 | 1.28 ± 0.1 | 1.12 ± 0.09 | 1.44 ± 0.12 | – | – | – | –
CC(C)CO [2-methyl-1-propanol] + CCCCn1cc[n+](C)c1.F[P-](F)(F)(F)(F)F | 8.39 ± 0.57 | 5.74 ± 0.39 | 4.23 ± 0.29 | 3.23 ± 0.22 | – | – | – | – | –
CC(C)(C)O [2-methylpropan-2-ol] + CCCCCC[n+]1ccn(C)c1.O=S(=O)([N-]S(=O)(=O)C(F)(F)F)C(F)(F)F | 1.68 and 1.66 | 1.4 and 1.35 | 1.15 and 1.16 | 1.04 and 1.03 | – | – | – | – | –
CC(C)(C)O [2-methylpropan-2-ol] + CCCCn1cc[n+](C)c1.COS(=O)(=O)[O-] | – | 1.27 ± 0.1 | 1.19 ± 0.1 | 1.22 ± 0.1 | 1.38 ± 0.11 | – | – | – | –
CC(C)(C)O [2-methylpropan-2-ol] + CCCCn1cc[n+](C)c1.F[P-](F)(F)(F)(F)F | 4.83 ± 0.33 | 3.68 ± 0.25 | 2.97 ± 0.2 | 2.45 ± 0.17 | – | – | – | – | –
CCCCO [butan-1-ol] + CCCCCC[n+]1ccn(C)c1.O=S(=O)([N-]S(=O)(=O)C(F)(F)F)C(F)(F)F | 2.5 ± 0.19 | 2.02 ± 0.16 | 1.63 ± 0.12 | 1.33 ± 0.1 | – | – | – | – | –
CCCCO [butan-1-ol] + CCCCn1cc[n+](C)c1.COS(=O)(=O)[O-] | – | – | – | – | – | 1.68 ± 0.14 | 1.44 ± 0.11 | 1.37 ± 0.1 | 1.21 ± 0.08
CCCCO [butan-1-ol] + CCCCn1cc[n+](C)c1.F[P-](F)(F)(F)(F)F | 8.17 ± 0.56 | 5.9 ± 0.4 | 4.49 ± 0.31 | 3.43 ± 0.23 | – | – | – | – | –
CCC(C)O (stereo unspecified) [butan-2-ol] + CCCCCC[n+]1ccn(C)c1.O=S(=O)([N-]S(=O)(=O)C(F)(F)F)C(F)(F)F | 2.03 ± 0.16 | 1.67 and 1.65 | 1.37 and 1.38 | 1.2 and 1.21 | – | – | – | – | –
CCC(C)O (stereo unspecified) [butan-2-ol] + CCCCn1cc[n+](C)c1.COS(=O)(=O)[O-] | – | 1.31 ± 0.11 | 1.27 ± 0.1 | 1.21 ± 0.1 | 1.45 ± 0.12 | – | – | – | –
CCC(C)O (stereo unspecified) [butan-2-ol] + CCCCn1cc[n+](C)c1.F[P-](F)(F)(F)(F)F | 6.47 ± 0.44 | 4.8 ± 0.33 | 3.69 ± 0.25 | 2.87 ± 0.2 | – | – | – | – | –
CCO [ethanol] + CCCCCC[n+]1ccn(C)c1.O=S(=O)([N-]S(=O)(=O)C(F)(F)F)C(F)(F)F | 1.85 and 1.82 | 1.49 and 1.47 | 1.24 and 1.23 | 1.05 and 1.03 | – | – | – | – | –
CCO [ethanol] + CCCCn1cc[n+](C)c1.COS(=O)(=O)[O-] | – | 0.61 ± 0.05 | 0.62 ± 0.05 | 0.59 ± 0.05 | 0.64 ± 0.05 | – | – | – | –
CCO [ethanol] + CCCCn1cc[n+](C)c1.F[P-](F)(F)(F)(F)F | 3.81 ± 0.26 | 2.94 ± 0.2 | 2.32 ± 0.16 | 1.85 ± 0.12 | – | – | – | – | –
CO [methanol] + CCCCCC[n+]1ccn(C)c1.O=S(=O)([N-]S(=O)(=O)C(F)(F)F)C(F)(F)F | 1.54 and 1.5 | 1.27 and 1.26 | 1.08 and 1.05 | 0.93 and 0.91 | – | – | – | – | –
CO [methanol] + CCCCn1cc[n+](C)c1.COS(=O)(=O)[O-] | – | 0.36 ± 0.04 | 0.33 ± 0.04 | 0.38 ± 0.04 | 0.39 ± 0.04 | – | – | – | –
CO [methanol] + CCCCn1cc[n+](C)c1.F[P-](F)(F)(F)(F)F | 2.59 ± 0.18 | 2.06 ± 0.14 | 1.67 ± 0.11 | 1.36 ± 0.09 | – | – | – | – | –
CCCO [propan-1-ol] + CCCCCC[n+]1ccn(C)c1.O=S(=O)([N-]S(=O)(=O)C(F)(F)F)C(F)(F)F | 2.08 and 2.09 | 1.68 and 1.65 | 1.38 ± 0.1 | 1.19 and 1.18 | – | – | – | – | –
CCCO [propan-1-ol] + CCCCn1cc[n+](C)c1.COS(=O)(=O)[O-] | – | 0.88 ± 0.07 | 0.89 ± 0.07 | 0.82 ± 0.07 | 0.96 ± 0.08 | – | – | – | –
CCCO [propan-1-ol] + CCCCn1cc[n+](C)c1.F[P-](F)(F)(F)(F)F | 5.53 ± 0.38 | 4.14 ± 0.28 | 3.18 ± 0.22 | 2.45 ± 0.17 | – | – | – | – | –
CC(C)O [propan-2-ol] + CCCCCC[n+]1ccn(C)c1.O=S(=O)([N-]S(=O)(=O)C(F)(F)F)C(F)(F)F | 1.95 ± 0.15 | 1.56 and 1.53 | 1.17 and 1.15 | 1.08 and 1.02 | – | – | – | – | –
CC(C)O [propan-2-ol] + CCCCn1cc[n+](C)c1.COS(=O)(=O)[O-] | – | 0.94 ± 0.08 | 0.91 ± 0.07 | 0.88 ± 0.07 | 1.03 ± 0.08 | – | – | – | –
CC(C)O [propan-2-ol] + CCCCn1cc[n+](C)c1.F[P-](F)(F)(F)(F)F | 4.8 ± 0.33 | 3.64 ± 0.25 | 2.83 ± 0.19 | 2.25 ± 0.15 | – | – | – | – | –
